Reference: BindingDB's records for patent US12383533 (Frost Biologic, 2025)

Target: Tubulin alpha-1A chain (Sus scrofa, UniProt P02550)
Assay: Not found
From the text: Not found

Chain of Tubulin alpha-1A chain (P02550 whole entry, looked up): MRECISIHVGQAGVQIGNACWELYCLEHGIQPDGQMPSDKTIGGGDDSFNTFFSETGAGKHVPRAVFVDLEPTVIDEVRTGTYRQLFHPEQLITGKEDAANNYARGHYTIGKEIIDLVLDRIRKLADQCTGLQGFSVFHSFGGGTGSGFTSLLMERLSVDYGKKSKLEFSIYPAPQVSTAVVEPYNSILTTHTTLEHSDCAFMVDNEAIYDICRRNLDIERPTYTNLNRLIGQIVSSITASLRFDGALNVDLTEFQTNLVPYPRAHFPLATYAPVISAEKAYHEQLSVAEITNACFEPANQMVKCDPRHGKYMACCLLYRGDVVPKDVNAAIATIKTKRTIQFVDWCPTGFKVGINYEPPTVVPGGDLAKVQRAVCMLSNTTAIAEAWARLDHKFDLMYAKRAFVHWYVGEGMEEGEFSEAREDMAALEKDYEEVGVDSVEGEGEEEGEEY

**Q.** How did the IC50 turn out when Cc1ncc(C(=O)Nc2ncc(-c3cccc(NC4CC4)c3)cc2F)cn1 [US12383533, Compound 68] was run?
**A.** 1980 nM
